Source: US4835100A (priority 1986, dated 1989)
“And” between values parts separate entries of the source, which are not always exact repeats. Identical values can stand only once.

Columns and labels:
[1] = system: monoclonal antibody (2F5); type: binding, mouse
[2] = system: monoclonal antibody of Groopman et al; conditions: cited from earlier work
[3] = system: Rabbit polyclonal anti-aflatoxin B1 antibody; conditions: cited from earlier work
[4] = system: monoclonal antibody (2F5); type: binding, mouse; remark: listed apart in the source
[5] = system: monoclonal antibody (1C6); type: binding, mouse
monoclonal antibody 4E1 = conditions: cited from earlier work
[6] = system: serum antibody of mouse 2; type: binding
[7] = system: serum antibody of mouse 1; type: binding

| SMILES | % Cross-reactivity 2 (2F5) [1] [%] | % Cross-reactivity 5 [2] [%] | % Cross-reactivity Rabbit [3] [%] | % Cross-reactivity 1 (2F5) [4] [%] | concentration for 50% inhibition of antibody binding in the ELISA [4] [ng/mL] | % Cross-reactivity 3 (1C6) [5] [%] | % Cross-reactivity 4 (monoclonal antibody 4E1) [%] | Percent Inhibition of serum antibody binding to solid phase [6] | Percent Inhibition of serum antibody binding to solid phase [7] |
| --- | --- | --- | --- | --- | --- | --- | --- | --- | --- |
| COc1cc2c(c3oc(=O)c4c(c13)CCOC4=O)[C@@H]1C=CO[C@@H]1O2 [Aflatoxin G1, aflatoxin G1] | 26.6 | 5.0 | 31.2 | 175.0 | 1.6 | 193.0 | 14.3 |  |  |
| COc1cc2c(c3oc(=O)c4c(c13)CCC4=O)[C@@H]1CCO[C@@H]1O2 [Aflatoxin B2, aflatoxin B2] | 0.2 | 100.0 | 131.6 | 4.0 | 70.8 | 6.7 | 12.6 |  |  |
| COc1cc2c(c3oc(=O)c4c(c13)CCC4=O)[C@]1(O)C=CO[C@@H]1O2 [Aflatoxin M1, aflatoxin M1] | 3.7 | 100.0 | 0 | 4.5 | 63.1 | 3.9 | 7.3 |  |  |
| COc1cc2c(c3oc(=O)c4c(c13)CCC4=O)[C@@H]1C=CO[C@@H]1O2 [Aflatoxin B1, aflatoxin B1] | 100.0 | 100.0 | 100.0 | 100.0 | 2.8 | 100.00 | 100.0 | 44.6 and 44.3 and 28.7 and 33.6 and 23.5 | 0 |
| COc1cc2c(c3oc(=O)c4c(c13)CCOC4=O)[C@@H]1CCO[C@@H]1O2 [Aflatoxin G2, aflatoxin G2] | < 0.01 | 3.6 | 1.3 | 5.0 | 56.2 | 2.3 | 1.2 |  |  |
